According to US8093286B2, “Methods for treatment with bucindolol based on genetic targeting” (The Regents of the University of Colorado, a body corporate, priority 2004, dated 2012):
Values joined by “and” are separate entries in the source; they are usually repeats but may differ in a detail not shown here. Identical values can stand only once. Counter-ions that a name gives are not always drawn. Marks after values point to notes of the source that are not given here.

Test system: patients with Class III/IV heart failure
Experiment: BEST trial, bucindolol vs placebo, clinical outcomes incl. DNA substudy and norepinephrine-change analyses
Type: in vivo
Details: for hazard ratio for hospitalizations, bucindolol vs placebo: adjusted for position 49; for Crude mortality: bucindolol group; for Mortality (M) hazard ratio, NE change quartile 2nd/1st / Mortality (M) hazard ratio, NE change quartile 3rd/1st / Mortality (M) hazard ratio, NE change quartile 4th/1st / Mortality + CHF hospitalization (M + H) hazard ratio, NE change quartile 2nd/1st / Mortality + CHF hospitalization (M + H) hazard ratio, NE change quartile 3rd/1st / Mortality + CHF hospitalization (M + H) hazard ratio, NE change quartile 4th/1st: within bucindolol group; for hazard ratio for survival, bucindolol vs placebo: adjusted for position 49 variants, age, sex, race
Source text: Patients who participated in the Beta Blocker Evaluation of Survival Trial (BEST), (Lowes et al., 2002) and who consented for DNA substudies, were genotyped at the coding β1AR polymorphic sites. Enrollment in BEST was from May 31, 1995 to Dec. 31, 1998; the study design has been described in detail elsewhere (BEST Trial Investigators, 2001; and Lowes et al., 2002). Briefly, the study was a randomized, multicenter, placebo-controlled trial of the 3rd generation, nonselective β-blocker-vasodilator bucindolol (Bristow, 2000) in 2708 patients with Class III/IV heart failure (BEST Trial Investigators, 2001). Those receiving the active drug were administered 3 mg bucindolol twice daily for the first week, and up-titrated as tolerated on a weekly basis to 50 mg twice daily (or 100 mg twice daily for patients weighing >75 kg). Of the 2708 patients, 1040 consented for the substudy and had adequate DNA prepared from a blood sample. The study was approved by the BEST DNA Oversight Committee and the University of Cincinnati Institutional Review Board.
DNA was extracted from whole blood using standard techniques (Jones, 1963). Genotyping was performed using methods exactly as previously described in detail (Small et al., 2002). For the β1AR, variations at coding nucleotides 145 and 1165 were delineated, which correspond to amino acids 49 and 389. These alleles are designated as β1-Ser49, β1-Gly49 and β1-Arg389, β1-Gly389. All the DNA samples were successfully genotyped at the β1AR-389 locus and 1030 were successfully genotyped at β1AR-49.
The primary endpoints were all-cause mortality, hospitalizations adjudicated by an endpoints committee (BEST Trial Investigators, 2001) to be due to heart failure, and the combined endpoint of death or heart failure hospitalization. The variants at amino acid position 389 of the β1AR (Arg and Gly) were considered the primary genotypes hypothesized to influence […] efficacy. Continuous clinical variables are reported as mean ±SD, and comparisons were by t-test or Wilcoxon rank-sum tests. Categorical variables are reported as proportions and comparisons were by chi-square or Fisher's exact tests. Cumulative survival curves were constructed by Kaplan-Meier methods (Kaplan et al., 1958); and SAS (r) proprietary software, release 6.12. Cary, N.C.: SAS Institute, 1996). The Cox proportional-hazards regression model was used to examine the effects of treatment stratified by the indicated genotype. Results were adjusted for age, sex, race, and, as indicated, the β1-Gly49 polymorphism. Because of the limited number of comparisons, and an a priori hypothesis that was based on cell, transgenic, and other human studies […] Perez et al., 2003); and Wagoner et al., 2002), the P values <0.05 were considered to as significant, without adjustments for multiple comparisons.
Norepinephrine levels at baseline, or the change at 3 months were used to predict survival and the combined endpoint of mortality+CHF hospitalization. Absolute and log transformed data were initially analyzed. Because of skewness in norepinephrine levels natural log (Ln) transformed data were used in multivariate Cox proportional hazards regression models.
A Maximum Likelihood based method (Kalbfleisch et al., 1980) was used to categorize changes in norepinephrine into 3 groups for prediction of mortality or mortality+CHF hospitalization. This partitioning method finds the optimal split of norepinephrine values that maximize the likelihood of the resulting Cox proportional hazards model. In addition, a flexible cubic spline analysis (Green et al., 1994) was used to determine the shape and significance level of the relationship of norepinephrine changes at 3 months to survival.

[1] = 1st quartile of absolute NE change
[2] = 2nd quartile of absolute NE change
[3] = 3rd quartile of absolute NE change
[4] = 4th quartile of absolute NE change
[5] = BEST α2c DEL carrier (n = 207/1036)
[6] = BEST β1 389Arg/Arg + α2c DEL carriers (n = 73/1036)
[7] = BEST β1 389Arg/Arg + α2c WT/WT (n = 418/1036)
[8] = BEST β1 389 Gly carriers + DEL carriers (n = 134/1036)
[9] = BEST β1 389 Gly carriers + α2c WT/WT (n = 411/1036)
[10] = absolute NE change at 3 months, pg/ml
[11] = β1 389Arg/Arg and α2c WT/WT patients

CC(C)(Cc1c[nH]c2ccccc12)NCC(O)COc1ccccc1C#N (stereo not drawn) [bucindolol, (2-{2-hydroxy-3{{2-(3-indolyl)-1,1-dimethylethyl}amino}propoxy}-benzonitrile hydrochloride)]
bucindolol/placebo hazard ratio, mortality (M) (1st quartile of % NE change): 1.03 | bucindolol/placebo hazard ratio, mortality + CHF hospitalization (M + H) (1st quartile of % NE change): 1.14 | bucindolol/placebo hazard ratio, mortality (M) [1]: 0.96 | bucindolol/placebo hazard ratio, mortality + CHF hospitalization (M + H) [1]: 1.19 | bucindolol/placebo hazard ratio, mortality (M) (2nd quartile of % NE change): 0.98 | bucindolol/placebo hazard ratio, mortality + CHF hospitalization (M + H) (2nd quartile of % NE change): 1.39 | bucindolol/placebo hazard ratio, mortality (M) [2]: 0.98 | bucindolol/placebo hazard ratio, mortality + CHF hospitalization (M + H) [2]: 1.30 | bucindolol/placebo hazard ratio, mortality (M) (3rd quartile of % NE change): 0.56 | bucindolol/placebo hazard ratio, mortality + CHF hospitalization (M + H) (3rd quartile of % NE change): 0.65 | bucindolol/placebo hazard ratio, mortality (M) [3]: 0.63 | bucindolol/placebo hazard ratio, mortality + CHF hospitalization (M + H) [3]: 0.58 | bucindolol/placebo hazard ratio, mortality (M) (4th quartile of % NE change): 0.90 | bucindolol/placebo hazard ratio, mortality + CHF hospitalization (M + H) (4th quartile of % NE change): 0.66 | bucindolol/placebo hazard ratio, mortality (M) [4]: 0.80 | bucindolol/placebo hazard ratio, mortality + CHF hospitalization (M + H) [4]: 0.74 | hazard ratio of subsequent mortality with norepinephrine reduction at 3 months (likelihood analysis) (153 bucindolol subjects, NE reduction ≧244.5 pg/ml): 1.69 | hazard ratio for hospitalizations, bucindolol vs placebo (Arg389 homozygotes): 0.63 | HF Hospitalization hazard ratio, bucindolol vs placebo [5]: 0.76; 67 Ev | Mortality + HF Hospitalization hazard ratio, bucindolol vs placebo [5]: 0.89; 84 Ev | HF Hospitalization hazard ratio, bucindolol vs placebo (BEST α2c WT/WT (n = 829/1036)): 0.74; 267 Ev | Mortality + HF Hospitalization hazard ratio, bucindolol vs placebo (BEST α2c WT/WT (n = 829/1036)): 0.72; 341 Ev | Mortality hazard ratio, bucindolol vs placebo (BEST α2c WT/WT (n = 829/1036)): 0.70; 155 Ev | HF Hospitalization hazard ratio, bucindolol vs placebo (BEST β1 389Arg/Arg (n = 493/1040), hydrochloride): 0.64 and 0.64; 154 | HF Hospitalization hazard ratio, bucindolol vs placebo [6]: 0.81; 73 Ev | Mortality + HF Hospitalization hazard ratio, bucindolol vs placebo [6]: 0.85; 34 Ev | Mortality hazard ratio, bucindolol vs placebo [6]: 0.71; 13 Ev | HF Hospitalization hazard ratio, bucindolol vs placebo [7]: 0.59; 126 Ev | Mortality + HF Hospitalization hazard ratio, bucindolol vs placebo [7]: 0.61; 156 Ev | Mortality hazard ratio, bucindolol vs placebo [7]: 0.60; 69 Ev | HF Hospitalization hazard ratio, bucindolol vs placebo [8]: 0.62; 134 Ev | Mortality + HF Hospitalization hazard ratio, bucindolol vs placebo [8]: 0.81; 50 Ev | Mortality hazard ratio, bucindolol vs placebo [8]: 1.35; 24 Ev | HF Hospitalization hazard ratio, bucindolol vs placebo [9]: 0.93; 411 Ev | Mortality + HF Hospitalization hazard ratio, bucindolol vs placebo [9]: 0.86; 185 Ev | Mortality hazard ratio, bucindolol vs placebo [9]: 0.82; 86 Ev | Number of deaths (%) (Bucindolol Incr subgroup, n = 137): 43 (31%)* | Number of deaths (%) (Bucindolol Inter subgroup, n = 551): 114 (21%) | Number of deaths (%) (Bucindolol Redxn subgroup, n = 153): 52 (34%)* | hazard ratio for hospitalizations, bucindolol vs placebo (Gly389 carriers): 0.85 | Crude mortality (1st quartile of % NE change (< −30.2)): 25.2% | Crude mortality (1st quartile of absolute NE change (< −144 pg/ml)): 26.1% | Crude mortality (2nd quartile of % NE change (−30.2 to < −2.5)): 26.0% | Crude mortality (2nd quartile of absolute NE change (−144 to < −9 pg/ml)): 25.7% | Crude mortality (3rd quartile of % NE change (−2.5 to 31.1)): 18.8% | Crude mortality (3rd quartile of absolute NE change (−9 to 111 pg/ml)): 17.7* % | Crude mortality (4th quartile of % NE change (> 31.1)): 29.1% | Crude mortality (4th quartile of absolute NE change (> 111 pg/ml)): 28.6% | increased risk of subsequent mortality with marked norepinephrine reduction at 3 months (bucindolol subgroup with NE reduction ≧244.5 pg/ml (Group 1) vs intermediate change group, hydrochloride): 1.7 fold and 1.65 fold | Mortality hazard ratio, Arg/Arg:Gly carrier (bucindolol-treated, BSL NE 64-356 pg/ml (146)): 0.90 | Mortality hazard ratio, Arg/Arg:Gly carrier (bucindolol-treated, BSL NE 358-545 pg/ml (144)): 0.74 | Mortality hazard ratio, Arg/Arg:Gly carrier (bucindolol-treated, BSL NE 546-2571 pg/ml (149)): 0.68 | Mortality hazard ratio, Arg/Arg:Gly carrier (bucindolol-treated, Group 1, change in NE @ 3 mos <−244 (70)): 1.07 | Mortality hazard ratio, Arg/Arg:Gly carrier (bucindolol-treated, Group 2, change in NE @ 3 mos −244 to 145 (248)): 0.82 | Mortality hazard ratio, Arg/Arg:Gly carrier (bucindolol-treated, Group 3, change in NE @ 3 mos >145 (54)): 0.36 | relatively better mortality reduction of Arg homozygotes vs Gly carriers (bucindolol-treated, increasing norepinephrine group (>145 pg/ml)): 64% | Mortality (M) hazard ratio, NE change quartile 2nd/1st (% NE change at 3 months): 1.14 | Mortality (M) hazard ratio, NE change quartile 3rd/1st (% NE change at 3 months): 0.77 | Mortality (M) hazard ratio, NE change quartile 4th/1st (% NE change at 3 months): 1.19 | Mortality + CHF hospitalization (M + H) hazard ratio, NE change quartile 2nd/1st (% NE change at 3 months): 1.18 | Mortality + CHF hospitalization (M + H) hazard ratio, NE change quartile 3rd/1st (% NE change at 3 months): 0.91 | Mortality + CHF hospitalization (M + H) hazard ratio, NE change quartile 4th/1st (% NE change at 3 months): 1.18 | Mortality (M) hazard ratio, NE change quartile 2nd/1st [10]: 0.99 | Mortality (M) hazard ratio, NE change quartile 3rd/1st [10]: 0.66 | Mortality (M) hazard ratio, NE change quartile 4th/1st [10]: 1.15 | Mortality + CHF hospitalization (M + H) hazard ratio, NE change quartile 2nd/1st [10]: 1.00 | Mortality + CHF hospitalization (M + H) hazard ratio, NE change quartile 3rd/1st [10]: 0.83 | Mortality + CHF hospitalization (M + H) hazard ratio, NE change quartile 4th/1st [10]: 1.10 | increase in CV mortality (α2c DEL 322-325 and β1 389Gly carriers): 36% | increase in cardiovascular mortality (α2c DEL 322-325 carriers): 3% | increase in all-cause mortality (α2c DEL 322-325 carriers who are β1 389Gly carriers, hydrochloride): 36% and 35% | reduction in cardiovascular mortality (α2c WT/WT patients): 41% | reduction in mortality plus HF hospitalization (α2c wild type patients): 28% | reduction in all-cause mortality (α2cAR wild type (WT/WT) patients, hydrochloride): 29% and 30% | reduction in mortality (α2cAR wild type patients who are β1 389Gly carriers (nonsignificant)): 22% | mortality reduction (α2cAR-Del322-325 carriers with β1AR-389Arg/Arg): 18% | increase in all-cause mortality (α2cAR-Del322-325 carriers, hydrochloride): 10% and 9% | reduction in all-cause mortality [11]: 40% | reduction in cardiovascular mortality [11]: 47% | reduction in mortality + heart failure hospitalization [11]: 39% | reduction in cardiovascular mortality (β1 389Arg/Arg patients): 46% | reduction in all-cause mortality (β1 389Gly carriers (nonsignificant)): 10% | reduction in cardiovascular mortality (β1 389Gly carriers (p=NS)): 22% | reduction in HF hospitalization (β1-389 Arg/Arg + α2c wild type patients): 41% | hazard ratio for survival, bucindolol vs placebo (β1-Arg389 homozygotes): 0.62 | hazard ratio for survival, bucindolol vs placebo (β1-Gly389 carriers): 0.89 | reduction in all-cause mortality (improvement in survival) (β1AR-389Arg/Arg patients): 38%
